Data on two compounds can be found in patent publication US20070020241A1, “Use of photosensitisation” (priority 2003, published 2007).

The test system of test [1] is S. aureus 8325-4. Nature of the test: Targeted photodynamic therapy using Φ11-SnCe6 conjugates and a laser light source. The test is classed as cell-based, Staphylococcus aureus. The following applies: 1.15 μg ml^−1 SnCe6, 633 nm 35 mW HeNe laser 5 minutes (21 J/cm^2). The method, then: Bacteriophage Φ11 was propagated and precipitated as described above for phage 75, except that S aureus strain 8325-4 was used as the propagating strain. Tin chlorin e6 (SnCe6) was conjugated onto Staphylococcus phage Φ11 using the method described above, achieving bound concentrations of 2.3 and 3.5 μg ml^−1 SnCe6 with the phage Φ11 at 4.7×10^7 pfu.ml^−1. […] The final concentration of conjugated SnCe6 was 1.15 μg ml^−1.
The light source was a 35 mW Helium/Neon laser and irradiation (when used) was for 5 minutes in the case of FIGS. 3 and 4, and for 10 minutes in the case of FIG. 5.

Test [2] concerns Streptococcus pyogenes ATCC 12202. Nature of the test: Lethal photosensitization of Streptococcus pyogenes using SnCe6 and laser light. The format is cell-based. The procedure:
(§1) streptococcus pyogenes ATCC 12202 was grown in Brain Heart Infusion broth at 37° C. in an atmosphere consisting of 5% CO2 in air. The cells were harvested by centrifugation and re-suspended in phosphate buffered saline (PBS) and diluted to 1×10^7 cfu/ml in PBS. 20 μl samples of the diluted bacterial suspension were then placed into wells of a 96-well plate, together with a magnetic stirrer bar. 100 μl of different concentrations (1-50 μg/ml) of the SnCe6 in PBS was added to the bacterial suspensions. Controls were performed with 100 μl PBS added to the bacteria and either irradiated (L+S−) or kept in the dark (L−S−). The experiment was carried out in duplicate.
After incubation, the contents of some of the wells were exposed to light from the 35 mW Helium/Neon laser emitting light with a wavelength of 633nm for 10 min, with stirring, corresponding to an energy density of 42 J/cm^2. Aluminium foil was placed in the surrounding wells to allow any escaping laser light to be reflected back into the target well. Control wells were not irradiated with laser light.
After exposure to the laser light, 100 μl samples were immediately taken from each well and serially diluted, from 10^−1 to 10^−5, in 1 ml TSY in 1.5 ml Eppendorf tubes. Duplicate 50 μl aliquots of each dilution were then spread out on half a CBA plate. The plates were placed in a 37° C. incubator for up to 48 h and the resulting colonies were counted to determine the number of surviving organisms.

Test [3] concerns Propionibacterium acnes ATCC 29399. Put plainly: Lethal photosensitization of Propionibacterium acnes using SnCe6 and laser light. The format is cell-based. The method, then: as §1, with “Propionibacterium acnes ATCC 29399” for “streptococcus pyogenes ATCC 12202”, “acnes ATCC 29399 was grown” for “pyogenes ATCC 12202 was grown”, “grown in pre-reduced Brain Heart” for “grown in Brain Heart”, “in an anaerobic atmosphere. The cells” for “in an atmosphere consisting of 5% CO2 in air. The cells”, “diluted to 1×10^8 cfu/ml in” for “diluted to 1×10^7 cfu/ml in”
After incubation, the contents of some of the wells were exposed to light from the 35 mW Helium/Neon laser emitting light with a wavelength of 633 nm for 10 min, with stirring, corresponding to an energy density of 42 J/cm^2. Aluminium foil was placed in the surrounding wells to allow any escaping laser light to be reflected back into the target well. Control wells were not irradiated with laser light.
After exposure to the laser light, 100 μl samples were immediately taken from each well and serially diluted, from 10^−1 to 10^−5, in 1 ml of pre-reduced TSY in 1.5 ml Eppendorf tubes. Duplicate 50 μl aliquots of each dilution were then spread out on half a CBA plate. The plates were incubated anaerobically at 37° C. and the resulting colonies were counted to determine the number of surviving organisms.

The test system of another test is EMRSA-16. Nature of the test: Lethal photosensitisation using phage 75-SnCe6 conjugate and a white light source. The format is cell-based, Staphylococcus aureus. The conditions noted are these: for % kill (L+S+): vs PBS in the dark. The text has this: (§2) Bacterial strains: S. aureus 8325-4 • EMRSA-16
(§3) Light source: KL200 (Schott). This is a 20-watt halogen cold light source. The light guide attached to it is a flexible optic fibre bundle which is directed onto a 96 well plate at a distance of 5 cm. A square of 4-wells is placed at the centre of the light source.
(§4) Approx light intensity=44,000 lux or 470 μW/nm
(§5) Phage 75 was conjugated to SnCe6 as described above. Phages were used at a concentration of 1×10^7 pfu/ml.
(§6) Overnight cultures of S. aureus grown in nutrient broth were centrifuged, resuspended in PBS and adjusted to an OD of 0.05 at 600 nm (approximately 4×10^7 cfu/ml)
(§7) 50 μl of bacterial culture was aliquoted into a 96-well plate and 50 μl of the one of the following solutions added to the wells: • 1) 3.5 μg/ml SnCe6-phage 75 (final concentration 1.75 μg/ml, 1×10^6 pfu/well) in PBS • 2) 1.75 μg/ml SnCe6-phage 75 (final concentration 0.875 μg/ml, 5×10^5 pfu/well) in PBS • 3) 3.5 μg/ml SnCe6 in PBS (final concentration 1.75 μg/ml) • 4) 1.75 μg/ml SnCe6 in PBS (final concentration 0.875 μg/ml) • 5) PBS • 6) Phage 75 at a concentration of 5×10^5 or 1×10^6 pfu/well in PBS
(§8) Wells were either exposed to white light (4 wells at a time) or wrapped in tin foil and stored in the dark.
(§9) After various exposure times an aliquot was taken from each well, serially diluted and spread onto Columbia blood agar. Agar plates were incubated overnight at 37° C. and counted the next day.

Test [4] has as its system S. aureus 8325-4. Described as above. The format is cell-based, Staphylococcus aureus. The conditions noted are these: for % kill (L+S+): vs PBS in the dark.
Text: as §2, §3, §4, §5, §6, §7, §8, §9

A further test deals with 16 strains of EMRSA. The conditions noted are these: red light, higher light doses; cited from earlier work.
The mark [5] stands for this setting: 633 nm laser 10 min, 42 J/cm^2, 1-50 μg/ml.
Where [6] appears, read: dark, increasing concentrations (1-50 μg/ml).
Where [7] appears, read: photosensitiser 50 μg/ml, 633 nm laser 10 min, 42 J/cm^2.
Where [8] appears, read: white light 10 min, final photosensitiser 0.875 μg/ml.
The mark [9] stands for this setting: white light 10 min, final photosensitiser 1.75 μg/ml.
Where [10] appears, read: white light 20 min, final photosensitiser 1.75 μg/ml.
Setting [11] is: without exposure to white light.

As for `C=CC1=C(C)C2=CC3=NC(=C(CC(=O)[O-])C4=NC(=C(C)C4=C([O-])[O-])C=c4[n-]c(c(C)c4CC)=CC1=N2)C(CCC(=O)[O-])C3C.[H+].[Sn+4]` (stereo not shown) [SnCe6, tin (IV) chlorin e6], the “% kill (compared to control counts in phosphate buffered saline)” value in the test with S. aureus 8325-4 [1] is “did not achieve any kill”. Besides, the “effect on the viable count, irradiation” value in test [2] (setting [5]) and in test [3] (setting [5]) was “concentration-dependent decrease in the viable count” in each case. In addition, the “effect on the viable count, incubation in the dark” value in test [2] (setting [6]) and in test [3] (setting [6]) was “no significant effect” in each case. Further, the “% kill of the organism” value amounted to 99.9997% in test [2] (setting [7]) and 100% in test [3] (setting [7]). Also, the “% kill (L+S+)” value in the test with EMRSA-16 (setting [8]) came to 0%; in the test with EMRSA-16 (setting [9]), 0%; in the test on EMRSA-16 (setting [10]) it was 99.78%; in the test on S. aureus 8325-4 [4] (setting [8]), 45.3%; with S. aureus 8325-4 [4] (setting [9]), 97.8%; with S. aureus 8325-4 [4] (setting [10]), 97.9%. In addition, the “bacterial counts of controls vs unirradiated suspension without photosensitiser” value with EMRSA-16 (setting [11]) and with S. aureus 8325-4 [4] (setting [11]) was “not significantly different” in each case.

As for “aluminium disulphonated phthalocyanine [AlPcS2]”, in the test with 16 strains of EMRSA, the “% killing” value is on record as 100%.
